Laboratory results: US20230012172A1, “COMPOSITIONS AND METHODS FOR TREATMENT OF PLATINUM-BASED CHEMOTHERAPEUTIC RESISTANT TUMORS” (The George Washington University, priority 2020, published 2023)
Numbering of substitutions follows the chain as printed. pIC50: −log10 of the molar value.

Columns and labels:
SENP1-C603A = target: T1, SENP1-C603A (Homo sapiens, UniProt Q9P0U3, C603A); assay: In vitro thermal shift assay with mutant SENP1-C603A; assay type: binding; details: purified mutant SENP1-C603A
T1 construct: made in house; host or cells: E. coli implied (pGEX-4T1 vector)
T1 sequence (Q9P0U3 1-644 C603A): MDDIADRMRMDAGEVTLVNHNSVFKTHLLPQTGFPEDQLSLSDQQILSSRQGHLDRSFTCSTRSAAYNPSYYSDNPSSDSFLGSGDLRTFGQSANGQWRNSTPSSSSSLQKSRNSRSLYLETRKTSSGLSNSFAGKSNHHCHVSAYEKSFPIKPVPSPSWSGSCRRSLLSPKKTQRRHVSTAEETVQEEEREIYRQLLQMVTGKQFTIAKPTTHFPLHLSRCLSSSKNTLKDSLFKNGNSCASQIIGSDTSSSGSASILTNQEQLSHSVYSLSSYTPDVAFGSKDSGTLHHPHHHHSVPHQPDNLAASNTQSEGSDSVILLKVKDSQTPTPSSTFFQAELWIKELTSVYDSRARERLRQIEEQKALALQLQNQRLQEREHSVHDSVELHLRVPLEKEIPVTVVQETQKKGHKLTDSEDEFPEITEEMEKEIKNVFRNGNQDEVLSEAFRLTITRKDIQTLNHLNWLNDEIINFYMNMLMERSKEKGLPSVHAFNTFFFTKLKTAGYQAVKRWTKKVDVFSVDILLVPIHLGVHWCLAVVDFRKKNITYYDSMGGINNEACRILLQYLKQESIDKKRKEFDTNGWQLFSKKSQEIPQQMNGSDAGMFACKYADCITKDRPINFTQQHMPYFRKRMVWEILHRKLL

SENP1 = target: T2, SENP1 (Homo sapiens, UniProt Q9P0U3); assay: SENP1 inhibition in IGROV1 cells (SUMOylated JAK2, Western blot); assay type: cell-based; design: endogenous in cells; host or cells: IGROV1; details: incubated 48 hours, read-out: inhibited deSUMOylation of JAK2 with IC50
T2 sequence (Q9P0U3 1-644): T1 sequence (Q9P0U3 1-644 C603A) with A603C
Method: FIGS. 11A-11L depict images illustrating identification of a novel potent SENP1 inhibitor, UA. FIGS. 11A and 11B show Mc (FIG. 11A) and UA (FIG. 11B) inhibited SENP1 activity in vivo. IGROV1 cells were incubated with Mc or UA for 48 hours and harvested for Western blot for indicated proteins. […]. Intensity of SUMOylated JAK2 in B was measured by Quantity One software. FIGS. 11D and 11E show Mc (FIG. 11D) and UA (FIG. 11E) inhibited SENP1 activity in vitro. Recombinant His-JAK2 was SUMOylated as in FIG. 2F, followed by incubation with recombinant GST-SENP1 together with Mc or UA for 3 hours (h). […]. Intensity of SUMOylated JAK2 was measured by Quantity One software. […] SENP1 stability was analyzed using Western blot against SENP1 antibody in IGROV1 cells. […] SENP1 stability was analyzed by using Western blot against SENP1 antibody. […] Green: UA; Salmon: interface. Right panel, active residues of SENP1 for SENP1:UA complex. Green: UA; Salmon: active residues. […] Stability of SENP1-C603A was analyzed by using Western blot against SENP1 antibody
To determine the functional consequence of SENP1-JAK2 interaction, it was examined whether inhibition of SENP1 affected SUMOylation of JAK2. To this end, JAK2 was immunoprecipitated and the SUMOylation level of JAK2 was evaluated using an antibody against SUMO2/3 in SENP1 depleted cells.

Row | Structure (SMILES) | thermal stabilization of SENP1-C603A proteins (SENP1-C603A) | pIC50 (SENP1)
1 | CC1(C)CC[C@]2(C(=O)O)CC[C@]3(C)C(=CC[C@@H]4[C@@]5(C)CC[C@H](O[C@@H]6O[C@H](C(=O)O)[C@@H](O)[C@H](O[C@@H]7OC[C@@H](O)[C@H](O)[C@H]7O)[C@H]6O)C(C)(C)[C@@H]5CC[C@]43C)[C@@H]2C1 [Mc, Momordin Ic] | no longer stabilized | 4.50
2 | C[C@H]1[C@H](C)CC[C@]2(C(=O)O)CC[C@]3(C)C(=CC[C@@H]4[C@@]5(C)CC[C@H](O)C(C)(C)[C@@H]5CC[C@]43C)[C@H]12 [UA, ursolic acid] | no longer stabilized | 6.62
